Data set [1] has as its system Hepatitis C virus. In words: Inhibition of Hepatitis C virus genotype 1b NS5B polymerase. Further details: species or system Hepatitis C virus subtype 1b.
Data set [2] can be described thus: Inhibition of Hepatitis C virus genotype 1a NS5B polymerase. Also noted: species or system Hepatitis C virus subtype 1a.
Data set [3] concerns Hepatitis C virus genotype 4. Briefly: Inhibition of Hepatitis C virus genotype 4 NS5B polymerase at 10 uM.
The test system of data set [4] is Hepatitis C virus. Briefly: Antiviral activity against Hepatitis C virus genotype 1b 1389 infected in human HuH5.2 cells assessed as inhibition of viral replication after 72 hrs by luciferase reporter gene assay. In kind it is functional, organism-based, Hepacivirus hominis. The following applies: genotype 1b 1389, Huh-5-2, 72 h. For orientation: A reporter such as luciferase makes a cellular process visible.

Data set [5] can be described thus: Cytotoxicity against human HuH5.2 cells after 1.5 hrs by MTS assay. In kind it is cell-based, Huh-5-2. On the technique in general: Tetrazolium assays rely on reduction of a dye to a coloured formazan, in cell work by metabolically active cells.
Data set [6] has as its system Hepatitis C virus. In words: Inhibition of Hepatitis C virus genotype 1b 1389 NS5B polymerase. Further details: species or system Hepatitis C virus subtype 1b.

The source made the active and inactive calls. No cut-off for these calls is given here.

A word on the IC50: it is the point on the concentration scale where inhibition reaches its midpoint. Lower therefore signals inhibition by little substance. For the molecule `CCC(CC)Nn1c(=O)c(C2=NS(=O)(=O)c3ccccc3N2)c(O)c2ccccc21`, the 50% inhibitory concentration (IC50) in data set [1] is 0.12 µM; in data set [2], 2.46 µM.
`Cc1ccccc1CNn1c(=O)c(C2=NS(=O)(=O)c3ccccc3N2)c(O)c2ccccc21`: the values for the half-inhibitory concentration (IC50) in data set [1] and in data set [2] were 0.481 µM and 6.12 µM, respectively.
With `CC(C)Nn1c(=O)c(C2=NS(=O)(=O)c3ccccc3N2)c(O)c2ccccc21`, the half-maximal inhibitory concentration (IC50) in data set [1] was found to be 0.64 µM; in data set [2], 6.35 µM.
Broadly, the inhibition is how much of the control response was suppressed. On to `CCCn1cc(C2=NS(=O)(=O)c3cc(Br)ccc3N2)c2ccccc21`, for which the inhibition result in data set [3] is “inactive”.
Same read-out and setting: the entry for `O=S1(=O)N=C(c2cn(Cc3ccccc3)c3ccc(Br)cc23)Nc2ccccc21` is “inactive”.
For orientation: EC50 means the concentration giving half of the maximal effect. The term CC50 denotes the concentration giving 50% cytotoxicity. Read a low CC50 as greater toxicity to the cells. In the case of `CCCCn1cc(C2=NS(=O)(=O)c3ccccc3N2)c2ccccc21`, the EC50 in data set [4] is 8.01 µM. For the same molecule, in data set [5], the cytotoxic concentration (CC50) at 1.5 h was more than 50 µM. The inhibition entry in data set [3] was “inactive”.
`O=S1(=O)N=C(c2cn(Cc3ccccc3)c3ccccc23)Nc2ccccc21`: in data set [4], the EC50 was 1.86 µM. In data set [5], this molecule gave a CC50 at 1.5 h of more than 50 µM. In addition, the inhibition entry in data set [3] was “inactive”.
Turning to `CCCCNn1c(=O)c(C2=NS(=O)(=O)c3ccccc3N2)c(O)c2ccccc21`, the IC50 is 0.161 µM in data set [1] and 0.951 µM in data set [2].
Molecule `CS(=O)(=O)Nc1ccc2c(c1)S(=O)(=O)N=C(c1cn(Cc3ccccc3)c3ccccc13)N2` showed an inhibition in data set [3] of 60%.
As for `CC(C)CCNn1c(=O)c(C2=NS(=O)(=O)c3ccccc3N2)c(O)c2ccccc21`, the IC50 in data set [1] turned out to be 0.134 µM; in data set [2], 0.629 µM.
In the case of `O=c1c(C2=NS(=O)(=O)c3ccccc3N2)c(O)c2ccccc2n1NCc1ccc(Br)cc1`, the IC50 in data set [1] turned out to be 4.69 µM; in data set [2] it was 10.4 µM.
The corresponding values for `CCCCCNn1c(=O)c(C2=NS(=O)(=O)c3ccccc3N2)c(O)c2ccccc21` are 0.1 µM and 0.928 µM.
For the molecule `CC(C)(C)CCNn1c(=O)c(C2=NS(=O)(=O)c3ccccc3N2)c(O)c2ccccc21`, the figures for the concentration for half-maximal inhibition (IC50) in data set [1] and in data set [2] were 0.135 µM and 0.411 µM, respectively.
In the case of `O=c1c(C2=NS(=O)(=O)c3ccccc3N2)c(O)c2ccccc2n1NC1CCCCC1`, the IC50 in data set [1] is 0.06 µM; in data set [2] it was 0.356 µM.
For the molecule `O=c1c(C2=NS(=O)(=O)c3ccccc3N2)c(O)c2ccccc2n1NC1CCCC1`, the figures for the IC50 in data set [1] and in data set [2] were 0.15 µM and 0.747 µM, respectively.
`CCCn1cc(C2=NS(=O)(=O)c3cc(Br)cnc3N2)c2ccccc21`: in data set [4], the concentration giving a half-maximal response (EC50) turned out to be 2.96 µM. Half-maximal cytotoxicity in data set [5] (CC50 at 1.5 h) was put at 16.6 µM. In addition, the inhibition result in data set [3] is “inactive”.
In the case of `CC(C)CCn1cc(C2=NS(=O)(=O)c3cc(Br)cnc3N2)c2ccccc21`, the concentration giving a half-maximal response (EC50) in data set [4] was 7.07 µM. In data set [5], the CC50 at 1.5 h is more than 50 µM. For the same molecule, the inhibition entry in data set [3] is “inactive”.
Regarding `O=c1c(C2=NS(=O)(=O)c3ccccc3N2)c(O)c2ccccc2n1NCc1ccoc1`, the half-inhibitory concentration (IC50) turned out to be 0.133 µM in data set [1] and 1.55 µM in data set [2].
Take `Cc1c(C2=NS(=O)(=O)c3ccccc3N2)c2ccccc2n1Cc1ccccc1`: in data set [3], the inhibition entry is “inactive”.
With `Cc1ccsc1CNn1c(=O)c(C2=NS(=O)(=O)c3ccccc3N2)c(O)c2ccccc21`, the IC50 in data set [1] is 1.19 µM; in data set [2] it was 15 µM.
As to `O=c1c(C2=NS(=O)(=O)c3ccccc3N2)c(O)c2ccccc2n1NCC1CC1`, the IC50 in data set [1] was 0.145 µM; in data set [2] it was 0.285 µM.
For the molecule `CCCCn1cc(C2=NS(=O)(=O)c3cc(NS(C)(=O)=O)ccc3N2)c2cc(Br)ccc21`, the EC50 in data set [4] was determined as 7.7 µM. This molecule came in with a CC50 at 1.5 h in data set [5] of 49.2 µM. This molecule showed an inhibition in data set [3] of 60%.
Consider `CC(C)n1cc(C2=NS(=O)(=O)c3cc(Br)cnc3N2)c2ccccc21`, for which the inhibition entry in data set [3] was “inactive”.
In the case of `O=S1(=O)N=C(c2cn(Cc3ccccc3)c3ccccc23)Nc2ncc(Br)cc21`, the EC50 in data set [4] amounted to 20.2 µM. This molecule showed a CC50 at 1.5 h in data set [5] of more than 50 µM. Besides, in data set [3], the inhibition result was “inactive”.
The corresponding values for `CC(C)CCn1cc(C2=NS(=O)(=O)c3ccccc3N2)c2ccccc21` are 19.7 µM, more than 50 µM and “inactive”.
Take `O=c1c(C2=NS(=O)(=O)c3ccccc3N2)c(O)c2ccccc2n1NCc1ccccc1Br`: the values for the IC50 in data set [1] and in data set [2] were 0.469 µM and 6.72 µM, respectively.
As to `C=CCn1cc(C2=NS(=O)(=O)c3ccccc3N2)c2ccccc21`, the CC50 at 1.5 h in data set [5] is more than 50 µM. In data set [3], the inhibition entry is “inactive”.
Consider `CCCCn1cc(C2=NS(=O)(=O)c3ccccc3N2)c2cc(Br)ccc21`, for which, in data set [4], the 50% effective concentration (EC50) was determined as 9.9 µM. The molecule also had a half-maximal cytotoxic concentration (CC50) at 1.5 h in data set [5] of 37.2 µM. In addition, the inhibition entry in data set [3] was “inactive”.
Taken in the same sequence, the figures for `CCCn1cc(C2=NS(=O)(=O)c3ccccc3N2)c2ccccc21` were 4.15 µM, more than 50 µM and “inactive”.
For `CCCC(CCC)Nn1c(=O)c(C2=NS(=O)(=O)c3ccccc3N2)c(O)c2ccccc21`, the half-inhibitory concentration (IC50) worked out at 1.8 µM in data set [1] and 2.24 µM in data set [2].
With `O=c1c(C2=NS(=O)(=O)c3ccccc3N2)c(O)c2ccccc2n1NCC1CCCCC1`, the IC50 in data set [1] turned out to be 0.15 µM; in data set [2] it was 2.53 µM.
As for `CCCn1cc(C2=NS(=O)(=O)c3cc(I)ccc3N2)c2ccccc21`, the inhibition entry in data set [3] is “inactive”.
For the molecule `O=c1c(C2=NS(=O)(=O)c3ccccc3N2)c(O)c2ccccc2n1NCc1cccs1`, the IC50 in data set [1] was determined as 0.125 µM; in data set [2], 2.33 µM.
Regarding `CC(C)CNn1c(=O)c(C2=NS(=O)(=O)c3ccccc3N2)c(O)c2ccccc21`, the 50% inhibitory concentration (IC50) in data set [1] was found to be 0.101 µM; in data set [2], 0.941 µM.
`O=c1c(C2=NS(=O)(=O)c3ccccc3N2)c(O)c2ccccc2n1NC1CCC1`: the IC50 in data set [1] amounted to 0.108 µM; in data set [2] it was 0.278 µM.
With `CC(C)CCn1cc(C2=NS(=O)(=O)c3ccccc3N2)c2cc(Br)ccc21`, the 50% effective concentration (EC50) in data set [4] was determined as 18.4 µM. Further, the CC50 at 1.5 h in data set [5] is more than 50 µM. Moreover, the inhibition entry in data set [3] is “inactive”.
As for `O=c1c(C2=NS(=O)(=O)c3ccccc3N2)c(O)c2ccccc2n1NCc1ccc(Cl)s1`, the IC50 is 1.45 µM in data set [1] and 4.78 µM in data set [2].
With `C=CCn1cc(C2=NS(=O)(=O)c3cc(Br)cnc3N2)c2ccccc21`, the concentration giving a half-maximal response (EC50) in data set [4] is 25.4 µM. The CC50 at 1.5 h in data set [5] is more than 50 µM. For the same molecule, the inhibition result in data set [3] is “inactive”.
Molecule `CC(C)CCn1cc(C2=NS(=O)(=O)c3cc(NS(C)(=O)=O)ccc3N2)c2ccccc21` came in with an inhibition in data set [3] of 60%. For the same molecule, the concentration for half-maximal inhibition (IC50) in data set [6] was 1.2 µM.
Take `O=c1c(C2=NS(=O)(=O)c3ccccc3N2)c(O)c2ccccc2n1NC1=CCOC=C1`: the half-inhibitory concentration (IC50) in data set [1] was 0.439 µM; in data set [2], 4.63 µM.
Turning to `CC(C)n1cc(C2=NS(=O)(=O)c3ccccc3N2)c2ccccc21`, the inhibition entry in data set [3] was “inactive”.
On to `CCCC(Nn1c(=O)c(C2=NS(=O)(=O)c3ccccc3N2)c(O)c2ccccc21)C(C)C` (centres undefined), for which the half-maximal inhibitory concentration (IC50) in data set [1] is 1.13 µM; in data set [2] it was 6.4 µM.
The corresponding values for `O=c1c(C2=NS(=O)(=O)c3ccccc3N2)c(O)c2ccccc2n1NC1CCCCCC1` are 0.217 µM and 1.04 µM.
The corresponding values for `O=c1c(C2=NS(=O)(=O)c3ccccc3N2)c(O)c2ccccc2n1NCc1ccccc1` are 0.129 µM and 5.09 µM.
`O=c1c(C2=NS(=O)(=O)c3ccccc3N2)c(O)c2ccccc2n1NCc1ccco1`: the IC50 was 0.305 µM in data set [1] and 3.26 µM in data set [2].
Consider `CCCCn1cc(C2=NS(=O)(=O)c3cc(Br)cnc3N2)c2ccccc21`, for which the EC50 in data set [4] was 5.89 µM. Besides, the CC50 at 1.5 h in data set [5] was 21.9 µM. The inhibition entry in data set [3] is “inactive”.
For `CC(Nn1c(=O)c(C2=NS(=O)(=O)c3ccccc3N2)c(O)c2ccccc21)c1ccccc1` (centres undefined), the half-maximal inhibitory concentration (IC50) was 1.49 µM in data set [1] and 16.5 µM in data set [2].
Take `Cc1cccc(CNn2c(=O)c(C3=NS(=O)(=O)c4ccccc4N3)c(O)c3ccccc32)c1`: the IC50 worked out at 0.212 µM in data set [1] and 8.21 µM in data set [2].
The corresponding values for `O=c1c(C2=NS(=O)(=O)c3ccccc3N2)c(O)c2ccccc2n1NCc1nccs1` are 0.674 µM and 35.8 µM.
For the molecule `Fc1ccccc1-c1nc2ccn(Cc3ccc(-c4ccc(C(F)(F)F)cc4C(F)(F)F)nn3)cc-2n1` [TEGOBUVIR], the EC50 in data set [4] was 0.0007 µM.
For `CCc1cc(CC[C@]2(C3CCCC3)CC(O)=C(Cc3nc4nc(C)cc(C)n4n3)C(=O)O2)cc(CC)n1` [FILIBUVIR], the 50% effective concentration (EC50) in data set [4] was 0.041 µM.
Regarding `O=c1c(C2=NS(=O)(=O)c3ccccc3N2)c(O)c2ccccc2n1NCc1cccc(Br)c1`, the figures for the IC50 in data set [1] and in data set [2] were 0.075 µM and 1.04 µM, respectively.
For `CCCC(CC)Nn1c(=O)c(C2=NS(=O)(=O)c3ccccc3N2)c(O)c2ccccc21` (centres undefined), the figures for the half-inhibitory concentration (IC50) in data set [1] and in data set [2] were 0.386 µM and 1.89 µM, respectively.
